From patent US20210035672A1, “METHOD AND […] FOR INDIVIDUALIZED ADMINISTRATION OF MEDICAMENTS FOR […] WITHIN A T[…]” (University Of Maryland, Baltimore, priority 2018, published 2021)

Columns and labels:
[1] = Population pharmacokinetics of vancomycin in neonates (hierarchical Bayesian one-compartment model); type: in vivo
Excerpt: Briefly, in step 305, a one-compartment linear disposition model with zero order input (one hour intravenous infusion) and first-order elimination was used to describe the data collected in step 301. In step 303 Weight (Wt) and estimated glomerular filtration rate (EGFR) were included as covariates on clearance (CL), and weight was included as covariate on volume of distribution (V). Back in step 305, a lognormal distribution was used to describe the between-subject-variability (BSV) in model parameter estimates CL and V, as expressed in Equation 8 and Equation 9.
where CLi and Vi are the true parameters for the individual, CLtypical and Vtypical are the population value of the parameters, and ηCL and ηv denote the deviation between the typical value of the parameters and the true parameter value of an individual. The coefficient that describes the relationship between EGFR and CLtypical is denoted by CLEGFR. […] In Table 1, PM indicates posterior median; LCI indicates lower credible interval; and UCI indicates upper credible interval. In other embodiments, based on different datasets or different training approaches, the parameter values are expected to differ to some degree.

[2] = cited from earlier work

With `CN[C@H](CC(C)C)C(=O)N[C@H]1C(=O)N[C@@H](CC(N)=O)C(=O)N[C@H]2C(=O)N[C@H]3C(=O)N[C@H](C(=O)N[C@H](C(=O)O)c4cc(O)cc(O)c4-c4cc3ccc4O)[C@H](O)c3ccc(c(Cl)c3)Oc3cc2cc(c3O[C@@H]2O[C@H](CO)[C@@H](O)[C@H](O)[C@H]2O[C@H]2C[C@](C)(N)[C@H](O)[C@H](C)O2)Oc2ccc(cc2Cl)[C@H]1O` [vancomycin] the “Interindividual variability CL, posterior median” value ([1]; in vivo) was 22.9 % CV, the “Interindividual variability V, posterior median” value ([1]; in vivo) was 15.4 % CV and the “Residual variability, proportional, posterior median” value ([1]; in vivo) was 17.3 % CV. The “CLtypical, posterior median” value ([1]; typical individual 2.9 kg, estimated glomerular filtration rate of 30 mL/min per 1.73 m^2, one hour intravenous infusion) was 0.167 L/h, the “patients with AUC0-24 hr exceeding 600” value ([2]; current practice) was “over 30%” and the final target attainment ([2]; with TDM) was roughly 45%. For the same molecule, the “neonates that initially achieve recommended target concentrations” value ([2]; with dosing nomograms, studies across the US and Europe) was 37%.
